Where two headings read alike, the source gives them in different places.
What was measured:
human keratinocyte cells = type: cell-based; settings: 24 h incubation, total protein quantity
[1] = Peroxide radicals capturing capacity; type: biochemical; settings: pure polyphenols isolated from wood material
Source text: Tables 4C and 4D further represent the free radicals capturing capacity of certain pure polyphenols and unpurified polyphenol extracts with respect to peroxide radicals.

[2] = Antioxidative capacity: inhibition of the peroxidation of lipids; type: biochemical; settings: pure polyphenols isolated from wood materials
Source text: In Tables 4A, 4B, 4C and 4D, there are represented antioxidative and free radical capturing effects of pure polyphenolic compounds and of unpurified polyphenolic compounds containing raw extracts obtained from wood bark and stem knotwood.

[3] = pure polyphenols; footnote 1: Willför et al., J. Agric. Food. Chem, 51, 26 (2003); cited from earlier work
[4] = pure polyphenols; footnote 1: Willför et al., J. Agric. Food. Chem., 51, 7600-7606 (2003); cited from earlier work

EC50 μg/L, concentration which inhibits 50% of the peroxidation of the lipids [2]	Compound	EC20 ppm 24 h (limit value by which 20% of the cultivated cells died) (human keratinocyte cells)	capturing capacity mmol/g (peroxide radicals) [1]	EC50 μg/L, concentration which inhibits 50% of the peroxidation of the lipids [3]	capturing capacity mmol/g (peroxide radicals) [4]
	Cc1cc(C(C)(C)C)c(O)c(C(C)(C)C)c1 [BTH, butylated hydroxytoluene]	5.50 ppm			
17 µg/L	COc1cc([C@H]2c3cc(O)c(OC)cc3C[C@@H](CO)[C@@H]2CO)ccc1O [Cyclolariciresinol]		12 mmol/g		
488 µg/L	O=C1c2c(O)cc(O)cc2O[C@H](c2ccc(O)cc2)[C@H]1O [Dihydrokaempferol]		0.78 mmol/g		
	COc1cc(C[C@H]2C(=O)OC[C@@H]2[C@H](O)c2ccc(O)c(OC)c2)ccc1O [Hydroxymatairesinol]			58 µg/L	5.6 mmol/g
	COc1cc(C[C@H]2CO[C@H](c3ccc(O)c(OC)c3)[C@H]2CO)ccc1O [Lariciresinol]			126 µg/L	2.7 mmol/g
	COc1cc(C[C@H]2COC(=O)[C@@H]2Cc2ccc(O)c(OC)c2)ccc1O [Matairesinol]			99 µg/L	2.9 mmol/g
36 µg/L	Oc1ccc([C@H]2Oc3c(ccc(O)c3O)[C@@H](O)[C@H]2O)cc1O [Melacasidine]		20 mmol/g		
	COc1cc(C[C@H]2COC(=O)[C@]2(O)Cc2ccc(O)c(OC)c2)ccc1O [Nortrachelogenin]			53 µg/L	5.9 mmol/g
1135 µg/L	O=C1C[C@@H](c2ccccc2)Oc2cc(O)cc(O)c21 [Pinosembrin]		0.49 mmol/g		
50 µg/L	Oc1cc(O)cc(/C=C/c2ccccc2)c1 [Pinosylvin]		0.78 mmol/g		
	COc1cc(C[C@@H](CO)[C@H](CO)Cc2ccc(O)c(OC)c2)ccc1O [Secoisolariciresinol]			37 µg/L	8.5 mmol/g
	O=C1c2c(O)cc(O)cc2O[C@H](c2ccc(O)c(O)c2)[C@H]1O [Taxifolin]			46 µg/L	16 mmol/g
50 µg/L	Oc1ccc([C@H]2Oc3c(ccc(O)c3O)[C@@H](O)[C@H]2O)cc1 [Teracasidine]		7.8 mmol/g		

Compound	EC50 μg/L, concentration which inhibits 50% of the peroxidation of the lipids [2]	EC20 ppm 24 h (limit value by which 20% of the cultivated cells died) (human keratinocyte cells)	capturing capacity mmol/g (peroxide radicals) [1]	EC50 μg/L, concentration which inhibits 50% of the peroxidation of the lipids [3]	capturing capacity mmol/g (peroxide radicals) [4]
Pinoresinol	20 µg/L		7.8 mmol/g		
